Measurements from publication PMC8895377, “In Vivo Targeting Replication Protein A for Cancer Therapy” (Frontiers in Oncology, 2022).

Key:
H460 cells [1] = experiment: Caspase 3/7 apoptosis assay; assay type: cell-based, human; conditions: H460, 24 h
Description: Apoptosis induction was determined by activation of Caspases 3 and 7 using the CellEvent™ Caspase-3/7 Green Detection Reagent (Invitrogen). H460 cells were plated at 5 × 10^3 cells/well in black 96-well plates with clear bottoms (Costar) and incubated for 24 h prior to treatments. Cells were treated with the indicated concentration of RPAi or cisplatin for 24 h. The vehicle (DMSO) concentration was held constant at 1% for RPAi treatments. For caspase 3/7 detection, medium was removed and replaced with phosphate buffered saline (PBS) containing 5% fetal bovine serum (FBS) and 2 µM CellEvent™ Caspase-3/7 Green Detection Reagent. Cells were incubated at 37°C/5% CO2 for 1 h, and fluorescence intensity was measured in a BioTek Synergy H1 plate reader (excitation/emission 485/528). Images were captured with an Evos FL2 Auto microscope (Invitrogen) using a 10× objective.
Figure 3 The 329 induction of apoptotic cell death. (A) Analysis of caspase 3/7 activity in H460 cells following 24 h of treatment with 1% DMSO or the indicated concentrations of 329. Fluorescence images were captured as described in the Materials and Methods. (B) Quantification of caspase 3/7 activity. Fluorescence was measured in 96-well plates using a Biotek Synergy H1 plate reader following 24-h incubation with the indicated drugs and concentrations.

H460 NSCLC cells = experiment: CCK-8 viability assay; assay type: cell-based, human; conditions: H460, 48 h, compared to 551 predecessor
Description: Cell lines were obtained from ATCC and maintained as monolayer cultures in RPMI 1640 medium (H460) or Dulbecco’s Modified Eagle's Medium (DMEM) (A549) supplemented with 10% fetal bovine serum. H460 and A549 cells were plated at 2.5 × 10^3 cells/well and A2780 and GCT27 cells plated at 5 × 10^3 cells/well in a 96-well plate and incubated for 18–24 h prior to treatments. Cells were treated with the indicated concentration of RPAi for 48 h. The vehicle (DMSO) concentration was held constant at 1%. Cell metabolism/viability was assessed by a mitochondrial metabolism assay (CCK-8) as we have described previously ([10]). The generation of the water-soluble formazan product by cellular dehydrogenases is proportional to the number of living cells. Following incubation with CCK-8 reagent, absorbance was measured at 450 nm with a BioTek Synergy H1 plate reader. Values were compared to those of vehicle-treated controls to determine percent viability, and the results represent the average and SEM of triplicate determinations.

H460 cells [2] = experiment: DNA fiber analysis of replication fork dynamics; assay type: cell-based, human
Description: Analysis of DNA replication intermediates was performed as previously described with minor modifications ([11], [12]). H460 cells were seeded in 6-well plates at a density of 2 × 10^5 cells. […] After harvesting, the cells were resuspended in PBS at a concentration of 1,000,000 cells/ml, and 2 µl of the cell suspension was mixed with 8 µl of lysis buffer (200 mM Tris-HCl pH 7.5, 50 mM EDTA, 0.5% SDS) on a Superfrost Plus microscope slide (Fisher Scientific). After 6 min of incubation, the slides were tilted at a 45-degree angle to allow cell lysates to slowly run down the slide. After air-drying, the slides were fixed in methanol:acetic acid (3:1) and stored at 4°C. DNA fibers were denatured with 2.5N HCl for 1 h, washed with PBS, and blocked with 5% BSA in PBS-T (PBS + 0.1% Tween-20) for 1 h. […] Excess antibodies were removed by washing with PBS-T 3 times. After air-drying, the slides were mounted onto a coverslip with mounting medium. Fiber tracts were imaged with a Nikon epifluorescence microscope using a 40× oil immersion objective, and 100 fibers for each group were analyzed in ImageJ where the ratios of CldU : IdU were compared using pixel length. Data were analyzed by ANOVA with Bonferroni test for multiple comparisons.
(A) Schematic depiction of experimental design. DNA was pulse-labeled with IdU for 20 min. After IdU removal, replication forks were stalled by the addition of HU or left to replicate with vehicle treatment. HU was removed, and replication was labeled with CldU. Following CldU, cells were treated with the DDRi or vehicle. […] Data presented are combined from three individual experiments (100 fibers analyzed per experiment; 300 fibers total). Red bar indicates the median value of CldU/IdU.

[3] = In vivo toxicity analysis

For `CCOc1ccc2cc(C3CC(c4ccc(I)cc4)=NN3C(=O)CCCC(=O)NCCCN3CCOCC3)c(Cl)nc2c1` (centres unmarked) [compound 329], the “activation of caspases 3 and 7” value (H460 cells [1]) was “induces cell death via a classical apoptotic pathway”, the “single-agent cellular anticancer activity (CCK-8)” value (H460 NSCLC cells) was “potent single-agent activity” and the “CldU/IdU signal after HU” value (H460 cells [2]; H460, HU 2.5 mM then 329 50 µM or VE-822 2 µM) was “significant decrease in CldU/IdU signal”. For the same compound, the “CldU/IdU, inhibitor alone” value (H460 cells [2]; H460, without HU, 329 50 µM, VE-822 2 µM, 2 h) was “minimal effects”, the toxicity ([3]; 200 mg/kg in the new formulation) was “increased toxicity” and the kidney function ([3]; DMSO/Tween formulation, data not shown) was “no differences from vehicle controls”. The toxicity ([3]; dosing up to 200 mg/kg, suspension in DMSO/Tween) was “no overt toxicity” and the body weight ([3]; up to 200 mg/kg, suspension in DMSO/Tween) was “no significant loss in body weight”.
